Read-outs that look alike come from different tables or passages of the source.
Molecular target: T1, rat P2X7R (Rattus norvegicus, UniProt Q64663)
T1 construct: gene P2rx7; rP2X7R (NM_019256) stably expressed in 1321N1 cells
T1 sequence (Q64663 1-595): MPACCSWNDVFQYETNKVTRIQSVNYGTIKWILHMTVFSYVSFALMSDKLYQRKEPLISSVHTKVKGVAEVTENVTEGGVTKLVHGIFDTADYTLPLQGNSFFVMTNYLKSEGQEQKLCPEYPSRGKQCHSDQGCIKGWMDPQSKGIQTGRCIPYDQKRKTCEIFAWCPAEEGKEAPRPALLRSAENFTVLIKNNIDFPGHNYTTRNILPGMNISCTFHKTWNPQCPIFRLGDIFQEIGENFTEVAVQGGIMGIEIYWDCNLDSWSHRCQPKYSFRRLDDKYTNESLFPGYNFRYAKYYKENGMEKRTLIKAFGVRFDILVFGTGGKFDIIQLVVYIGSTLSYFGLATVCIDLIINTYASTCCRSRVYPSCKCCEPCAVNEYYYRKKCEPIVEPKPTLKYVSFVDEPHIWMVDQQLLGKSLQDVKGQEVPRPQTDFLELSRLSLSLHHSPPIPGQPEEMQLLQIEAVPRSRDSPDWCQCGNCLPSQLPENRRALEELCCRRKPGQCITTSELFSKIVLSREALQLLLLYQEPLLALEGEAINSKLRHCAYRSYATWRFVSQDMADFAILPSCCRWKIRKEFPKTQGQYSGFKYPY
Test: single-cell Fura-2 Ca2+ imaging, BzATP-stimulated rP2X7R-1321N1 cells
Format: cell-based

IC50 (read-out: IC50)	IC50	SMILES
0.13 µM		COCCOC(=O)C1=C(C)NC(C)=C(C(=O)OC/C=C/c2ccccc2)C1c1cccc([N+](=O)[O-])c1 (racemic) [CNP, 2-Methoxyethyl(E)-3-phenyl-2-propen-1-yl(±)-1,4-dihydro-2,6-dimethyl-4-(3-nitrophenyl)pyridine-3,5-dicarboxylate]
	0.25 µM	CCc1oc2ccccc2c1C(=O)c1cc(Br)c(O)c(Br)c1 [BBR, benzbromarone]
0.22 µM		COc1cc(C(=O)NS(=O)(=O)c2ccccc2C)ccc1Cc1cn(C)c2ccc(NC(=O)OC3CCCC3)cc12 [ZFK, zafirlukast]
